Experimental data: patent US6087493A, “Porphyrin compounds as telomerase inhibitors” (Regents of the University of Texas System, priority 1998, dated 2000)
Read-outs that look alike come from different tables or passages of the source.

What was measured:
human telomerase = human telomerase (Homo sapiens, UniProt O14746); assay: Telomerase inhibition, primer extension assay in HeLa cell extract; format: biochemical
MCF-7 = assay: Cytotoxicity (MTT) MCF-7; format: cell-based, human; conditions: mcf-7 cells
Procedure: (§1) The cells were cultured in the presence of the porphyrins incubator for 4-7 days and then treated with 3-(4,5-dimethylthiazol-2-yl)-2,5-diphenyl-tetrazolium bromide (MTT). Formazan concentration was quantitated by absorbance at 570 nm.

MDA-231 = assay: Cytotoxicity (MTT) MDA-231; format: cell-based, human; conditions: mda-231 cells
Procedure: as §1

BT-20 = assay: Cytotoxicity (MTT) BT-20; format: cell-based, human; conditions: bt-20 cells
Procedure: as §1

PC3 = assay: Cytotoxicity (MTT) PC3; format: cell-based, human; conditions: pc3 cells
Procedure: as §1

DU145 = assay: Cytotoxicity (MTT) DU145; format: cell-based, human; conditions: du145 cells
Procedure: as §1

LNCap = assay: Cytotoxicity (MTT) LNCap; format: cell-based, human; conditions: lncap cells
Procedure: as §1

Daudi = assay: cells; format: cell-based, human; conditions: daudi cells
Procedure: as §1

Raji = assay: Cytotoxicity (MTT) Raji; format: cell-based, human; conditions: raji cells
Procedure: as §1

NHLF = assay: Cytotoxicity (MTT) NHLF normal lung fibroblasts; format: cell-based; conditions: human, nhlf cells
Procedure: as §1
All porphyrins were obtained from Midcentury, Posen, Ill. The experimental work with porphyrins was performed under minimum exposure to light. All human tumor cell lines and normal human breast cells Hs578Bst were purchased from the American Type Culture Collection. Normal human lung fibroblasts NHLF were obtained from Clonetics Corporation. The cell lines were grown according to the suppliers' instructions.

HS578t = format: cell-based, human; conditions: hs578t cells
Procedure: (§2) Cytotoxicity of the compounds to human breast cancer cells in vitro was assessed using a panel of cell lines representing estrogen receptor-positive (BT20, MCF-7m), and a pair of estrogen receptor-negative, transformed breast (11S578t) and normal breast (HS578Bst) cells.
(§3) Thy: tritiated […] assay (n = 3 ± SEM)

MCF-7M [1] = format: cell-based, human; conditions: mcf-7m cells
Procedure: as §2, §3

MCF-7M [2] = format: cell-based, human; conditions: mcf-7m cells; remark: listed apart in the source
Procedure: as §2

HeLa = assay: cells; format: cell-based, human; conditions: hela cells
[3] = tested on: MCF7 human breast carcinoma cells (telomerase activity); assay: Telomerase activity in intact MCF7 cells cultured with porphyrin; format: cell-based
Procedure: To determine the long-term effects of TMPyP4 on whole cells, MCF7 breast carcinoma cells were cultured in the continuous presence of 1, 10, and 100 μM TMPyP4. The porphyrin solution was freshly added to the medium from the concentrated stock at each passage of the cells (every 3-4 days). On days 4, 8, and 15, the cells were lysed and the telomerase activity was measured in the extracts.
Breast cancer cells MCF-7m, BT20, HS578t and normal HS578Bst cells were grown in culture in T75 flasks (10^6 cells/flask). […] The cells were harvested and freeze-thawed and the extracts used to measure telomerase activity using the Dynabeads method.

[4] = tested on: telomere length in MCF7 cells; assay: Telomere length analysis in MCF7 cells; format: cell-based, human
Procedure: DNA was extracted from a minimum of 5×10^6 cells by SDS, proteinase K treatment, then purified and quantitated as previously described (Strahl and Blackburn, 1991). Approximately 1 μg of total DNA was digested with Mse I; the digested DNA was size fractionated by agarose gel electrophoresis and Southern blotted. The blots were hybridized with a ^32 P-labeled 0.5 kb PCR™ DNA fragments composed of the telomere repeat d(TTAGGG), which served as a probe for the telomeres. The hybridized probe was detected by autoradiography and each lane on the film was analyzed by phosphoimage analysis (Molecular Dynamics).
Telomeres shorten at an average rate of 65-100 base pairs per cell division (Counter et al., 1992). To observe a significant effect of an agent on telomere length, e.g., shortening the telomeres by >1 kilobase in MCF7 cells (5.7 kbases), a minimum of […] population doubling times will be required.

sea urchin embryos = conditions: in vivo
Procedure: Lytechinus pictus sea urchins were purchased from Marinus Inc. (Long Beach, Calif.) and maintained at 15° C. in refrigerated aquaria containing Instant Ocean synthetic sea water, following a described procedure [Vafa, 1996 #300]. For polyspermic fertilization, 0.01 vol freshly prepared stock sperm suspension (25 ml ASW containing 2 ml undiluted semen) was added to the eggs suspended for 10 min at 1% concentration in ASW adjusted to pH 9.0 with NH4 OH and stirred at 60 rpm with motor-driven Teflon paddles. Ten min after insemination, the fertilized eggs were allowed to settle, and the supernatant ASW containing sperm was aspirated and replaced with fresh ASW. The embryos were cultured at 18° C. Twenty min after fertilization TMPyP4 or TMPyP4.Pt^II (100 μM final concentration) was added from a concentrated stock in DMSO to 1% embryo suspensions. Equivalent amounts of DMSO (final 0.1%) were added to control egg suspensions. At measured times after insemination, the embryos were pelleted by centrifugation and resuspended in Carnoy's fixative (ethanol:acetic acid, 3:1) for at least 1 hr. After fixation the embryos were pelleted and resuspended successively in: (1) ethanol:acetic acid, 1:1 for 5-15 min: (2) 45% acetic acid for 5-15 min; (3) room temperature 1 N HCl for 1-2 min: (4) 60° C. 1 N HCl for 7-8 min; (5) room temperature 1 N HCl for 1-2 min; (6) Schiffs reagent for 90-120 min; and (7) 45% acetic acid before affixing the embryos to microscope slides. Embryo samples were placed on microscope slides, covered with coverslips, and frozen on a bed of dry ice. After at least 30 min, the coverslips were popped off using a razor blade and the slides were immediately plunged into Coplin jars containing 95% ethanol for 5-10 min. The slides were then transferred to Coplin jars containing 100% ethanol for 3-5 min. After removing the slides and allowing them to air dry, the embryos were mounted with one drop Permount (Fisher) under a coverglass.
The inventors examined whether treatment of the embryos with G-quadroplex interactive agents can cause observable chromosomal abnormalities. A time course of the embryo development was followed in the presence of 10 μM and 100 μM concentrations of TMPyP4 or TMPyP4.Pt^II.

Sequence of human telomerase (O14746 whole entry): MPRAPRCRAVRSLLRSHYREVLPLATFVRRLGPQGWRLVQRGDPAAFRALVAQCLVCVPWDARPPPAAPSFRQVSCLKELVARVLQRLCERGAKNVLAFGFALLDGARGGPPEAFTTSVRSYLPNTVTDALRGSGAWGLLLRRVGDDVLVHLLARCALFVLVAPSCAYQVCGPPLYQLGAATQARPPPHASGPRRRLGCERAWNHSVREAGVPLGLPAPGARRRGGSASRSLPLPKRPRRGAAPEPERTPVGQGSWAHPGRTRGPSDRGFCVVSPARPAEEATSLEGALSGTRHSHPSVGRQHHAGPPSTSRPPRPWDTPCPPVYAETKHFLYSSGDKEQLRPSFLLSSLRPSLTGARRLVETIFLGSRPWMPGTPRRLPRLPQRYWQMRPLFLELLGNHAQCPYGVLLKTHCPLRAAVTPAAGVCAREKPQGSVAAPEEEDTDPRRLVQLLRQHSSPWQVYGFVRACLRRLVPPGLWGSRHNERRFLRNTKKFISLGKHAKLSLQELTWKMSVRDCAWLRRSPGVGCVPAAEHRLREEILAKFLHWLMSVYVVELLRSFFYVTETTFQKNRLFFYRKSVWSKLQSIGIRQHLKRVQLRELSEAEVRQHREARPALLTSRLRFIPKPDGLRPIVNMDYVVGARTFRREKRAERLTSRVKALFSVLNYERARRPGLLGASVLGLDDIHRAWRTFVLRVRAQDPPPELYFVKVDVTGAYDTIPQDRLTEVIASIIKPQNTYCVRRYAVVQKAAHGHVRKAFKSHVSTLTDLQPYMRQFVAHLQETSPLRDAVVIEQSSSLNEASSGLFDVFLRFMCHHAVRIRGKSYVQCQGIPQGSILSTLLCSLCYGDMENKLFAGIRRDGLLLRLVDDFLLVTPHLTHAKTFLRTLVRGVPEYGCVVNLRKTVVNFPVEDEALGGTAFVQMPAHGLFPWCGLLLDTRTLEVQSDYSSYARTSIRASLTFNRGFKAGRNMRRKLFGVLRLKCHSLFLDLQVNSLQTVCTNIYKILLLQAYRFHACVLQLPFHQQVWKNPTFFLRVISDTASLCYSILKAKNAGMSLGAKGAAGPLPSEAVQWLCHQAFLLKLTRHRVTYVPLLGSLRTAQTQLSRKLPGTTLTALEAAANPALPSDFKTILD

Which “% Inhibition of telomerase” value (human telomerase; 25 µM) does the source give for C[n+]1ccc(-c2c3nc(c(-c4cc[n+](C)cc4)c4ccc([n-]4)c(-c4cc[n+](C)cc4)c4nc(c(-c5cc[n+](C)cc5)c5ccc2[n-]5)C=C4)C=C3)cc1.[Cl-].[Cl-].[Cl-].[Cl-].[Pt+2] [TMPyP4 PtII, Platinum(II)tetra(N-methyl-4-pyridyl)porphyrin chloride] here?
The value was 69%.

What about the IC50 (human telomerase; read-out: Telomerase Inhibition) of the same molecule?
Its IC50 is 15 µM.

And the IC50 (MCF-7)?
Its IC50 is > 100 µM.

And the IC50 (MDA-231)?
Its IC50 is > 100 µM.

And the IC50 (BT-20)?
Its IC50 is 262 µM.

And the IC50 (PC3)?
Its IC50 is > 200 µM.

What about the IC50 (DU145) of the same molecule?
Its IC50 is 1360 µM.

And the IC50 (LNCap)?
Its IC50 is 42.2 µM.

What about the IC50 (Daudi) of the same molecule?
Its IC50 is 104 µM.

And the IC50 (Raji)?
Its IC50 is 64.6 µM.

What about the CC50 (NHLF) of the same molecule?
Its CC50 is 11.6 µM.

What about the IC50 (HS578t) of the same molecule?
Its IC50 is 214 ± 49 µM.

And the IC50 (MCF-7M [1])?
The IC50 was 434 ± 386 µM.

And the IC50 (MCF-7M [2])?
The IC50 was 74.8 ± 31.9 µM.

And the IC50 (HeLa)?
The IC50 was 136 ± 34.8 µM.

What about the “telomerase activity in intact MCF7 cells” value [3] of the same molecule?
The value was “less potent inhibitor than TMPyP4”.

What about the “effect on telomere shortening” value [4] of the same molecule?
Its value is “No detectable effects on telomere shortening”.

And the “cell number and morphology of embryos” value (sea urchin embryos)?
Its value is “fewer cells, many very misshapen and variable in size relative to the controls”.

And the “condensed chromosome length / chromosomal effects” value (sea urchin embryos)?
Its value is “Qualitatively similar results”.

What about the “differences from controls in embryos” value (sea urchin embryos) of the same molecule?
Its value is “no definitive differences were seen”.

And the “first signs of ciliary motility” value (sea urchin embryos)?
The value was 9 h.

And the toxicity to embryos (sea urchin embryos)?
Its toxicity to embryos is “generally non-toxic to the embryos”.
